From US5420027A, “Methods and compositions for the expression of biologically active fusion proteins comprising a eukaryotic cytochrome P450 fused to a reductase in bacteria” (Board of Regents, The University of Texas System, priority 1992, dated 1995)
Where two headings read alike, the source gives them in different places.

Assays:
[1] = biological target: T1, human liver P450 1A2 (Homo sapiens, UniProt P05177, A19F/I20L/S18V); experiment: Ethoxyresorufin and ethoxycoumarin O-deethylase activities of P450 1A2-containing E. coli membranes (fluorometric); assay type: biochemical; conditions: O-deethylation; membranes plus purified reductase, 37° C.
T1 construct: made in house; host or cells: E. coli DH5α membranes, pCWori+ plasmid
T1 sequence (P05177 with tags, fused parts or gaps S18V/A19F/I20L limits assumed): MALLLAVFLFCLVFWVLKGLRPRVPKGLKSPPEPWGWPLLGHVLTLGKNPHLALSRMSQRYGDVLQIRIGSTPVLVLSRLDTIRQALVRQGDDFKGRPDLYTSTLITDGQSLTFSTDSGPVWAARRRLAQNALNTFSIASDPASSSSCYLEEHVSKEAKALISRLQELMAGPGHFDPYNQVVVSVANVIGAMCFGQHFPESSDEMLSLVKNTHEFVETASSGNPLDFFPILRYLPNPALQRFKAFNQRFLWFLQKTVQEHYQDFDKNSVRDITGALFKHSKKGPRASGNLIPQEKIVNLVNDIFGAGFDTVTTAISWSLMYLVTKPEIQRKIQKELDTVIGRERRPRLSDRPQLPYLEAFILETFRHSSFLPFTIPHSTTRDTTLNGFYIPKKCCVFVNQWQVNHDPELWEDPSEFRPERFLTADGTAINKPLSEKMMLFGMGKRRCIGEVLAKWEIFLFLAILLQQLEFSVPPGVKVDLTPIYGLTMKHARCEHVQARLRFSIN
Protocol: (§1) Membranes from P450 1A2-expressing E. coli were incubated with pure NADPH-cytochrome P450 reductase and the activity for the P450 directed oxidation of a number of substrates was determined.
(§2) Ethoxyresorufin and ethoxycoumarin O-deethylase activities were assayed fluorometrically using an Aminco-Bowman fluorometer as previously described (Burke & Mayer, 1974; Ullrich & Weber, 1972). […] Substrates were added as DMSO solutions in less than 0.1% of the final volume. The reactions were initiated by the addition of 10 μl of 50 mM NADPH.

[2] = biological target: T2, bovine P45017α (Bos taurus, UniProt P05185, W2A); experiment: Substrate-induced difference spectra (substrate binding) in intact E. coli expressing P45017α; conditions: steroid added until spectrally saturated
T2 construct: made in house; host or cells: E. coli JM109 harboring pCWmod17 (intact cells)
T2 sequence (P05185 1-509 W2A): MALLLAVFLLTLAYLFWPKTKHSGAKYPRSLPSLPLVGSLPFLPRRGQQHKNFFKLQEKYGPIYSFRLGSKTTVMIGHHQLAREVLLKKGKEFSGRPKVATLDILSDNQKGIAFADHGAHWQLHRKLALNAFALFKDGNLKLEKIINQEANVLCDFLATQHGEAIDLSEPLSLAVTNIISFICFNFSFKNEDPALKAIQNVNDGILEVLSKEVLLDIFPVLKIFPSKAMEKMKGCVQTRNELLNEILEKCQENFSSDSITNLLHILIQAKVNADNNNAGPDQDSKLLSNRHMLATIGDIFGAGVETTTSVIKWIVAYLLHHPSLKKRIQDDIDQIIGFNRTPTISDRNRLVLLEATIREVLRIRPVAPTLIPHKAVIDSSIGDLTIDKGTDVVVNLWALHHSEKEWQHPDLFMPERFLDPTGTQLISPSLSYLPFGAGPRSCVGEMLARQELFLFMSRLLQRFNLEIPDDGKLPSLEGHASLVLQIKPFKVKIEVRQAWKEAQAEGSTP
Protocol: The functional role of the binding of C21 steroids to the expressed P45017α was determined by incubation of transformed E. coli with radiolabeled substrates and HPLC analysis of substrates and products.
For the studies shown in FIG. 3B, substrate binding spectra were obtained by adding steroid to the indicated final concentration: (preg) pregnenolone 22 μM, (17OH preg) 17α-hydroxypregnenolone 40 μM, (DHEA) dehydroepiandrosterone 46 μM, (AD) androstenedione 46 μM. A volume of washed cells containing 1.6 nmoles P45017α was diluted to 6 ml with MOPS buffer and divided into the sample and reference cuvettes of an Aminco DW-2A spectrophotometer. A baseline tracing was recorded from 350 to 510 nm (representative shown). Steroid was added in 10 μl aliquots (1-2mg/ml in ethanol) to the sample with an equal volume of ethanol added to the reference. Additional aliquots of steroids and ethanol were added until the bacterially expressed P45017α was spectrally saturated (spectra shown).

[3] = biological target: T3, bovine P450 17A1- rat liver reductase fusion protein (UniProt P00388+P05185, W2A); experiment: Steroid metabolism by bovine P450 17A1-rat liver reductase fusion protein with NADPH
T3 sequence (P05185+P00388 with tags, fused parts or gaps P05185:W2A): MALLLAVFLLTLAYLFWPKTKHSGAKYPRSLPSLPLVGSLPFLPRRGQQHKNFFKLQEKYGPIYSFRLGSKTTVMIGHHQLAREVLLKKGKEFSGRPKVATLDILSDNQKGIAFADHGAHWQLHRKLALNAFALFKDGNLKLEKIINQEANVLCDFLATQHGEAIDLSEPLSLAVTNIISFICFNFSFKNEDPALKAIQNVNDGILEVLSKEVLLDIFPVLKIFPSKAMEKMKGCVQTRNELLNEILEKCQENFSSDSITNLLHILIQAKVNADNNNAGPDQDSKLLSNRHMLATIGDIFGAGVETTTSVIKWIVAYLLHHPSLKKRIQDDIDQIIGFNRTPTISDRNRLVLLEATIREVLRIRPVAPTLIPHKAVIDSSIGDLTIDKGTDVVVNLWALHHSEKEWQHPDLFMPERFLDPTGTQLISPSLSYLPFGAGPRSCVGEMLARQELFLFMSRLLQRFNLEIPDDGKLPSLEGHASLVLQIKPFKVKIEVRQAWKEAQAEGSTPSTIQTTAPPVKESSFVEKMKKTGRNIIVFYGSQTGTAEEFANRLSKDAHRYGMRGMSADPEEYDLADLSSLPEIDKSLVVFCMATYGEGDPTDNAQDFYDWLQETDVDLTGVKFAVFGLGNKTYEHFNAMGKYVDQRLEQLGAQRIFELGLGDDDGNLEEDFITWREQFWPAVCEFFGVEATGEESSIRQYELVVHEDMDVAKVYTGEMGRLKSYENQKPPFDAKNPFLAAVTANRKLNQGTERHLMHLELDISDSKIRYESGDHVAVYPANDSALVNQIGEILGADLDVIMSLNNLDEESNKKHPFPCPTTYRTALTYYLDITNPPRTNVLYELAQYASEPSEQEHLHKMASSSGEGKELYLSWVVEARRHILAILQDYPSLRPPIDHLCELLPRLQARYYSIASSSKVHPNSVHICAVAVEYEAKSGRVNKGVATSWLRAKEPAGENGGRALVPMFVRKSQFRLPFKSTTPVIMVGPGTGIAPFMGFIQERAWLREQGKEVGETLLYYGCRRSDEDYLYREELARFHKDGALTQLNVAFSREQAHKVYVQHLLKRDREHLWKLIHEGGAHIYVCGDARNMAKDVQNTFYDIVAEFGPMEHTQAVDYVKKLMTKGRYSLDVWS
Protocol: FIG. 11. […] Analysis was performed with reverse phase HPLC chromatography on a C18 column.
In the present example, purification of the fusion protein was achieved by chromatography on DE-52 and 2', 5' ADP-sepharose.

[4] = biological target: T4, bovine 17α-hydroxylase (P45017α) (Bos taurus, UniProt P05185, W2A); conditions: for conversion by expressed P45017α (17α-hydroxylation / 17,20-lyase): intact E. coli, 2.5 μM steroid, 28° C., up to 8 hours, no added reductase
T4 sequence (P05185 1-509 W2A): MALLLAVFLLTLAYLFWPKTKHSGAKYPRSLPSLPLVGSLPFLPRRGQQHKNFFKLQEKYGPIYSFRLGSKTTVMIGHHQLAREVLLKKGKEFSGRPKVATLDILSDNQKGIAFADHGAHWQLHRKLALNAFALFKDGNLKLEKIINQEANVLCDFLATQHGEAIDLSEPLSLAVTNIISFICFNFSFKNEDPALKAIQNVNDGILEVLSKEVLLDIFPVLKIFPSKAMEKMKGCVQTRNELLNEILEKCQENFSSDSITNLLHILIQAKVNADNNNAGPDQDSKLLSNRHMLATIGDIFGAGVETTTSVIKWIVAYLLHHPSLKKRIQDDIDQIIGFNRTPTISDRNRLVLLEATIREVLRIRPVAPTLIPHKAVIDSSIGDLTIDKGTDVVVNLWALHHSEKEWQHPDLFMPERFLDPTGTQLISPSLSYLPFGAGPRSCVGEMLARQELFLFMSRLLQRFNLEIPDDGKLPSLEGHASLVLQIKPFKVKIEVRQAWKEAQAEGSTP
Protocol: The initial substrates employed were pregnenolone, 17α-hydroxypregnenolone, and progesterone. For these studies, E. coli were grown and induced as described for the FIG. 2 studies. Cells were pelleted, washed once in MOPS buffer and resuspended in the same buffer at 1/20 volume of the original bacterial culture. A volume of concentrated cells corresponding to 3.7-4.2 nmoles P45017α was diluted to 5ml MOPS buffer containing 10 mM glucose, 2.5 μM steroid and 100,000 cpm/ml of ^3 H-labeled radioactive steroid. Samples were incubated at. 28° C. with gentle shaking. Aliquots (0.5 ml) were removed at 0, 0.5, 1, 2, 4, 6 and 8 hours after steroid addition. Following extraction of cells and culture media steroids were analyzed by HPLC as previously described (Estabrook et al., 1988).

[5] = substrate: CCOc1ccc2nc3ccc(=O)cc-3oc2c1; experiment: Ethoxyresorufin and ethoxycoumarin O-deethylase activities of P450 1A2-containing E. coli membranes (fluorometric); assay type: biochemical, human; conditions: other: O-deethylation, membranes plus purified reductase, 37° C., pH 7.4
Protocol: as §1, §2

[6] = substrate: C[C@]12CC[C@@H]3c4ccc(O)cc4CC[C@H]3[C@@H]1CC[C@@H]2O; experiment: cells, lysate or membranes named; conditions: other: estradiol to 2-OH metabolite, membranes plus purified reductase, 37° C., pH 7.5
[7] = membrane-bound fused enzyme (FIG. 10)
[8] = purified fusion protein incubated with NADPH (FIGS. 11, 12)

## CCOc1ccc2ccc(=O)oc2c1 [Ethoxycoumarin]
[1]
  Vmax: 0.3644 mol/min/mol P450

## C[C@]12CC[C@H](O)CC1=CC[C@@H]1[C@@H]2CC[C@]2(C)C(=O)CC[C@@H]12 [dehydroepiandrosterone]
[2]
  binding to expressed P45017α (substrate-induced difference spectrum): much less binding

## CC(=O)[C@@]1(O)CC[C@H]2[C@@H]3CC=C4C[C@@H](O)CC[C@]4(C)[C@H]3CC[C@@]21C [17α-hydroxyregnenolone, 17α-hydroxypregnenolone]
[3]; [7]
  metabolism by membrane-bound fusion protein: lost the ability to catalyze the lyase reaction
[3]; [8]
  metabolism by purified fusion protein: DHEA is formed in a time dependent manner
[2]
  binding to expressed P45017α (substrate-induced difference spectrum): binding of substrates was also observed

## CC(=O)[C@H]1CC[C@H]2[C@@H]3CC=C4C[C@@H](O)CC[C@]4(C)[C@H]3CC[C@]12C [pregnenolone]
[4]
  conversion by expressed P45017α (17α-hydroxylation / 17,20-lyase): readily converted to their 17α-hydroxylated products
[3]
  metabolism by membrane-bound fusion protein: rather slow rate
  metabolism by purified fusion protein: remarkably high enzymatic activity
[2]
  binding to expressed P45017α (substrate-induced difference spectrum): binding of substrates was also observed

## CC(=O)N1CCN(c2ccc(OCC3COC(Cn4ccnc4)(c4ccc(Cl)cc4Cl)O3)cc2)CC1 (stereo not shown) [ketoconazole]
[4]; intact E. coli expressing bovine P45017α
  inhibition of 17α-hydroxylase activity: inhibit 17α-hydroxylase activity

## CC(=O)[C@H]1CC[C@H]2[C@@H]3CCC4=CC(=O)CC[C@]4(C)[C@H]3CC[C@]12C [progesterone]
[4]
  conversion by expressed P45017α (17α-hydroxylation / 17,20-lyase): readily converted to their 17α-hydroxylated products
[3]; [7]
  metabolism by membrane-bound fusion protein: rather slow rate
[3]; [8]
  metabolism by purified fusion protein: remarkably high enzymatic activity
[2]
  binding to expressed P45017α (substrate-induced difference spectrum): binding of substrates was also observed

## C[C@]12CCC(=O)C=C1CC[C@@H]1[C@@H]2CC[C@]2(C)C(=O)CC[C@@H]12 [androstenedione]
[2]
  binding to expressed P45017α (substrate-induced difference spectrum): no binding

B1: human liver P450 1A2 (Homo sapiens; A19F/I20L/S18V) (protein)
chain: MALLLAVFLFCLVFWVLKGLRPRVPKGLKSPPEPWGWPLLGHVLTLGKNPHLALSRMSQRYGDVLQIRIGSTPVLVLSRLDTIRQALVRQGDDFKGRPDLYTSTLITDGQSLTFSTDSGPVWAARRRLAQNALNTFSIASDPASSSSCYLEEHVSKEAKALISRLQELMAGPGHFDPYNQVVVSVANVIGAMCFGQHFPESSDEMLSLVKNTHEFVETASSGNPLDFFPILRYLPNPALQRFKAFNQRFLWFLQKTVQEHYQDFDKNSVRDITGALFKHSKKGPRASGNLIPQEKIVNLVNDIFGAGFDTVTTAISWSLMYLVTKPEIQRKIQKELDTVIGRERRPRLSDRPQLPYLEAFILETFRHSSFLPFTIPHSTTRDTTLNGFYIPKKCCVFVNQWQVNHDPELWEDPSEFRPERFLTADGTAINKPLSEKMMLFGMGKRRCIGEVLAKWEIFLFLAILLQQLEFSVPPGVKVDLTPIYGLTMKHARCEHVQARLRFSIN
notes: made in house; host or cells: E. coli DH5α membranes, pCWori+ plasmid
[5]
  Km: 0.01 µM
  kcat: 2.5 mol/min/mol P450
[6]
  Km: 13 µM
  kcat: 1.5 mol/min/mol P450
